pEC50: −log10 of the molar value.
Legend:
SARS-CoV-2 B.1 [1] = test: RT-qPCR of viral RNA, hACE2-A549 cells infected with SARS-CoV-2 B.1; assay type: cell-based; conditions: for pEC50: read-out: EC50 against the SARS-CoV-2 B.1 virus; for inhibited the replication of SARS-CoV-2 B.1 (RT-qPCR): 24 hpi
[2] = tested on: p-MLKL and cleaved caspase-3; test: Western blot of cell death factors, SARS-CoV-2 B.1-infected hACE2-A549 cells; assay type: cell-based, human; conditions: SARS-CoV-2 B.1-infected hACE2-A549, MOI 0.1, 30 μM, 48 hpi
Procedure: Cells were lysed using a radioimmunoprecipitation assay (RIPA) buffer (Cell Signaling Technology® cat #9806) and a protease/phosphatase inhibitor mixture (Cell Signaling Technology®, cat #5872). The lysed cells were electrophoresed on 12% and 15% acrylamide gels using sodium dodecyl sulfate polyacrylamide gels at 80 to 120 V for 90 minutes.
The gels were transblotted using polyvinylidene difluoride (PVDF) membranes (Millipore Ltd., cat #617203) at 30 V for 90 minutes. Proteins were transferred to a PVDF membrane and blocked at room temperature for one hour using Tris-buffered saline (TBS) and 0.1% Tween-20 (TBS-T, Bio-Rad Laboratories, Inc., cat #1706531) and 5% skim milk. […] The antibody-treated PVDF membrane was detected with a horseradish peroxidase (HRP) substrate (EMD Millipore Corporation) using VILBER (FUSION Solo S instrument). […]

vaccinia virus (VACV) = test: microbe, parasite or virus in culture; assay type: cell-based
Zika virus (ZIKV) = test: microbe, parasite or virus in culture; assay type: cell-based
MFN1 and MFN2 = test: Western blot of mitochondrial fusion factors, SARS-CoV-2 B.1-infected Calu-3 cells; assay type: cell-based; conditions: SARS-CoV-2 B.1-infected Calu-3, 24 hpi
Calu-3 cells = test: Mitochondrial membrane potential by MitoTracker Orange CMTMRos and IFA, SARS-CoV-2 B.1-infected Calu-3 cells; assay type: cell-based; conditions: SARS-CoV-2 B.1-infected Calu-3, 30 μM, 24 hpi
Procedure: Mitochondrial membrane potential probes MitoTracker™ Orange CMTMRos (Invitrogen™ cat #M7510) and JC-1 (Thermo Fisher Scientific, cat #T3168) were used to measure the recovery of mitochondrial membrane potential. Mitotracker™MOrange CMTMRos is a fluorescent dye that stains mitochondria in living cells and can be observed under a confocal microscope at a wavelength of 554 to 576 nm.
Calu-3 cells were seeded on a 4-chamber slide, infected with a virus and treated with Example Compound 1, and then treated with Mitotracker™MOrange CMTMRos at a final concentration of 500 nM in serum-free DMEM for 20 minutes at 37° C. and 5% CO2. Control cells were treated with carbonyl cyanide-p-trifluoromethoxyphenylhydrazone (FCCP) for 20 minutes. All steps were carried out with light blocked, the 4-chamber slide was washed three times with pre-heated PBS, and an immunofluorescence analysis (IFA) was performed.
To evaluate mitochondrial homeostasis by treatment with Example Compound 1, hACE2-A549 cells and Calu-3 cells were infected with SARS-CoV-2 B.1 virus at MOI=0.1 and 1. […]
In addition, after infecting the Calu-3 cells with SARS-CoV-2, the membrane potential of the infected cells was measured using MitoTracker™ Orange CMTMRos and IFA, and the results are shown in FIG. 5C.

[3] = tested on: interferon signaling and pro-inflammatory cytokine genes (Ifnβ, Ifit1, Ifit2, Il-6, Tnfα); test: Inflammatory cytokine gene expression (mRNAseq DEG, RT-qPCR) in SARS-CoV-2 B.1-infected hACE2-A549 cells; assay type: cell-based, human
[4] = tested on: mitochondrial OXPHOS complexes I, II, III, IV, and V; test: Mitochondrial OXPHOS complex expression (mRNAseq DEG) in SARS-CoV-2 B.1-infected hACE2-A549 cells; assay type: cell-based, human; conditions: SARS-CoV-2 B.1-infected hACE2-A549, MOI 0.1, 30 μM, 24 hpi
SARS-CoV-2 B.1 [5] = test: RT-qPCR of viral RNA, Vero E6 cells infected with SARS-CoV-2 B.1; assay type: cell-based
[6] = tested on: SARS-CoV-2 B.1 nucleocapsid protein; test: Western blot of nucleocapsid protein, Vero E6 cells infected with SARS-CoV-2 B.1; assay type: cell-based; conditions: Vero E6, MOI=0.01, 30, 20, 10, 1 μM, 24 hpi
Procedure: (§1) Vero E6 cells, Calu-3 cells (1×10^6 cells per well), and hACE2-A549 cells (0.5×10^6 cells per well) were seeded in 6-well plates and placed in an incubator at 37° C. and 5% CO2 conditions overnight. When the cells reached approximately 80% density, they were washed twice with pre-heated phosphate-buffered saline (PBS; Gibco™ cat #70011069), 1 mL of 2% FBS medium was added, and the cells were infected at the following multiplicity of infection [MOI] values at 37° C. for two hours (MOI=0.01 for Vero E6 cells, MOI=0.1 for hACE2-A549 cells, and MOI=1 for Calu-3 cells). The infected plate was shaken every 15 minutes to efficiently distribute the infectious material. After two hours of virus adsorption, Example Compound 1 was administered. Next, the supernatants and cells were harvested at 24 hours post infection (hpi).
(§2) Cells were lysed using a radioimmunoprecipitation assay (RIPA) buffer (Cell Signaling Technology® cat #9806) and a protease/phosphatase inhibitor mixture (Cell Signaling Technology®, cat #5872). […]
(§3) The gels were transblotted using polyvinylidene difluoride (PVDF) membranes (Millipore Ltd., cat #617203) at 30 V for 90 minutes. […] The antibody-treated PVDF membrane was detected with a horseradish peroxidase (HRP) substrate (EMD Millipore Corporation) using VILBER (FUSION Solo S instrument). […]

SARS-CoV-2 B.1 [7] = test: Plaque assay, hACE2-A549 cells infected with SARS-CoV-2 B.1; assay type: cell-based; conditions: hACE2-A549, MOI=0.1, 30 μM, 24 hpi
hACE2-A549 cells = test: Mitochondrial membrane potential by JC-1 staining, SARS-CoV-2 B.1-infected hACE2-A549 cells; assay type: cell-based, human; conditions: SARS-CoV-2 B.1-infected hACE2-A549, 30 μM, 24 hpi
Procedure: JC-1 is a marker for mitochondrial membrane potential, and appears as a green fluorescent monomer (˜529 nm) at depolarization and abnormal mitochondrial membrane potential. JC-1 was diluted to 10 mM, and the JC-1 solution was treated at a final concentration of 2 μM in serum-free DMEM for 20 minutes at 37° C. and 5% CO2. Control cells were treated with H2O2 for 20 minutes. After JC-1 staining, nuclei were stained using Hoechst 33342 (Thermo Fisher Scientific, cat #62249) for five minutes at room temperature. After each staining step, cells were washed three times with pre-heated PBS and mounted on a glass slide. All steps were carried out with light blocked.
To evaluate mitochondrial homeostasis by treatment with Example Compound 1, hACE2-A549 cells and Calu-3 cells were infected with SARS-CoV-2 B.1 virus at MOI=0.1 and 1. After two hours, the cells were treated with Example Compound 1 at 30 μM, and JC-1 and MitoTracker staining of the hACE2A-549 cells and Calu-3 cells was performed at 24 hpi.

[8] = tested on: SARS-CoV-2 B.1 nucleocapsid protein; test: Western blot of nucleocapsid protein, hACE2-A549 cells infected with SARS-CoV-2 B.1; assay type: cell-based; conditions: hACE2-A549, MOI=0.1, 24 hpi
Procedure: as §1, §2, §3

[9] = tested on: SARS-CoV-2 BA.1 (omicron); test: microbe, parasite or virus in culture; assay type: cell-based
[10] = tested on: Nrf2 signaling pathway (HMOX1, Nqo1); test: Nrf2 signaling pathway gene expression (mRNAseq DEG, RT-qPCR) in SARS-CoV-2 B.1-infected hACE2-A549 cells; assay type: cell-based, human; conditions: SARS-CoV-2 B.1-infected hACE2-A549, MOI 0.1, 30 μM, 24 hpi
SARS-CoV-2 B.1 [11] = test: Plaque assay, Vero E6 cells infected with SARS-CoV-2 B.1; assay type: cell-based; conditions: Vero E6, MOI=0.01, 30 μM, 24 hpi
Seoul virus (SEOV) = test: microbe, parasite or virus in culture; assay type: cell-based
[12] = tested on: SARS-CoV-2 B.1.617.2 (delta); test: microbe, parasite or virus in culture; assay type: cell-based
[13] = SARS-CoV-2 B.1-infected hACE2-A549, 30 μM and 1 μM
[14] = Severe acute respiratory syndrome coronavirus 2

O=S1(=O)CCN(Cc2cc(NC3CCOCC3)c3[nH]c(-c4ccccc4)cc3c2)CC1 [Example Compound 1, 5-[(1,1-dioxido-4-thiomorpholinyl)methyl]-2-phenyl-N-(tetrahydro-2H-pyran-4-yl)-1H-indol-7-amine]
pEC50 (SARS-CoV-2 B.1 [1]; Severe acute respiratory syndrome coronavirus 2, hACE2-A549, MOI=0.01, 24 hpi): 5.85 | pEC50 (SARS-CoV-2 B.1 [1]; Severe acute respiratory syndrome coronavirus 2, hACE2-A549, MOI=0.1, 24 hpi): 5.15 | inhibited the replication of SARS-CoV-2 B.1 (RT-qPCR) (SARS-CoV-2 B.1 [1]; hACE2-A549, MOI=0.01, 30 µM): about 100 times | inhibited the replication of SARS-CoV-2 B.1 (RT-qPCR) (SARS-CoV-2 B.1 [1]; hACE2-A549, MOI=0.1, 30 μM): about 100 times | necrosis-related p-MLKL protein and cell death-related cCaspase 3 protein (Western blot) [2]: inhibited | pEC50 (vaccinia virus (VACV); Orthopoxvirus vaccinia, Vero C1008, read-out: EC50, VACV): 5.18 | reduced the expression level of VACV (RT-qPCR) (vaccinia virus (VACV); Vero E6, 24 hpi): about 15 times | reduced the expression level of ZIKV (RT-qPCR) (Zika virus (ZIKV); Vero E6): about 16 times | pEC50 (Zika virus (ZIKV); Zika virus, Vero C1008, Vero E6, 48 hpi): 5.11 | MFN1 and MFN2 protein level (Western blot) (MFN1 and MFN2): overexpression was suppressed | SARS-CoV-2 nucleocapsid protein (IFA) (Calu-3 cells): significant decrease | mitochondrial membrane potential, MitoTracker accumulation (Calu-3 cells): accumulation of MitoTracker | expression of the interferon signaling and pro-inflammatory cytokine genes (mRNAseq, DEG) ([3]; SARS-CoV-2 B.1-infected hACE2-A549): inhibited the expression | expression of interferon-related genes Ifnβ, Ifit1, and Ifit2 (RT-qPCR) [3, 13]: significantly down-regulated | induction of pro-inflammatory cytokine genes Il-6 and Tnfα (RT-qPCR) [3, 13]: reduced the induction | expression of mitochondrial OXPHOS complexes I to V (mRNAseq, DEG) [4]: up-regulated expression of all five OXPHOS complexes | pEC50 (SARS-CoV-2 B.1 [5]; Severe acute respiratory syndrome coronavirus 2, Vero C1008, Vero E6, MOI=0.01, 24 hpi, read-out: EC50 against SARS-CoV-2 B.1): 5.96 | SARS-CoV-2 B.1 virus replication inhibited compared to untreated cells (RT-qPCR) (SARS-CoV-2 B.1 [5]; Vero E6, MOI=0.01, 30 μM, 24 hpi): up to 1,000 times | expression of SARS-CoV-2 B.1 nucleocapsid protein (Western blot) [6]: decreased in a dose-dependency | infectious particles of SARS-CoV-2 B.1 reduced (plaque assay) (SARS-CoV-2 B.1 [7]): 100 fold | mitochondrial membrane potential (JC-1 Aggregate, RED) intensity (hACE2-A549 cells): intensity level similar to that of the uninfected cells | expression of SARS-CoV-2 B.1 nucleocapsid protein (Western blot) [8]: decreased in a dose-dependency | antiviral effect against SARS-CoV-2 BA.1 (omicron) (RT-qPCR) [9]: ~30 fold | pEC50 [9, 14]: 5.96 | Nrf2 signaling pathway (mRNAseq, DEG) [10]: up-regulated | gene expression of HMOX1 and Nqo1 (RT-qPCR), compared to untreated infected cells [10]: significant increase | infectious particles of SARS-CoV-2 B.1 reduced compared to untreated cells (plaque assay) (SARS-CoV-2 B.1 [11]): 1,000 times | pEC50 (Seoul virus (SEOV); Orthohantavirus seoulense, Vero C1008, read-out: EC50, SEOV): 5.72 | reduced the expression level of SEOV (RT-qPCR) (Seoul virus (SEOV); Vero E6, 24 hpi): about 3 times | antiviral effect against SARS-CoV-2 B.1.617.2 (delta) (RT-qPCR) [12]: about 1000 fold | pEC50 [12, 14]: 5.92

Reference: patent publication US20250213583A1, “ANTIVIRAL PHARMACEUTICAL COMPOSITION AND USE THEREOF” (priority 2022, published 2025)
